Data: patent US10807957B2, “Tetradentate chelating monoquinoline derivative, manufacturing method thereof, and application of same as metal ion regulator for neurodegenerative disease” (GUANGDONG UNIVERSITY OF TECHNOLOGY, priority 2016, dated 2020)

Test: Affinity constants for Cu2+ by competitive chelation with UV/Vis monitoring
Assay type: binding
Conditions: Cu2+ versus Zn2+, pH 7.4
Experimental: Estimation of affinity constants of compounds of general formula (I) with metal ions: […]
Affinity Constants for Cu^2:
The following mother solutions were prepared: (A) ligand L=TDMQ-n, 300 μM in 20 mM Tris.HCl pH 7.4, 150 mM NaCl; (B) Competing ligands (namely NTA, EDTA, EDDA, EGTA, or CDTA), 300 μM in 20 mM Tris.HCl pH 7.4, 150 mM NaCl; (C) CuCl2, 15 mM in H2O. In the UV/Vis cuvette, 100 μL of (A), 100 μL of (B), 1800 μL of 20 mM Tris.HCl pH 7.4, 150 mM NaCl, and 2 μL of (C) were added in that order. The final concentrations of L, Competing ligand (LC), and Cu^2+ were 15 μM.
The spectrum of the ligand L (2 μL of H2O instead of 2 μL of (C)) was recorded according to above conditions; and the spectrum of [Cu^2+−L] (100 μL of 20 mM Tris.HCl pH 7.4, 150 mM NaCl, instead of 100 μL of (B)) was recorded according to above conditions. All ligands and complexes studied followed the Beer-Lambert law in the experimental conditions used.
The equations of complexation are as follows: […]
It can be deduced that at the equilibrium:
UV/Vis monitoring at 383 nm allowed to determine the absorbance of the competitive chelation mixture (Amix), the absorbance of L in the absence of Cu^2+ (AL), and the absorbance of CuL in the absence of competing ligand (ACu-L). The proportion of Cu^2+ chelated by L was calculated as x=(AL-Amix)/(AL-ACu-L). Experiments were performed in triplicate.

Compound | difference between binding constants for copper and zinc
CN(C)CCNCCc1ccc2c(Cl)cc(Cl)c(N)c2n1 [TDMQ-20, N^1-(2-(8-amino-5,7-dichloroquinolin-2-yl)ethyl)-N^2,N^2-dimethylethane-1,2-diamine] | 12 orders of magnitude
CN(C)CCCNCc1ccc2c(Cl)cc(Cl)c(N)c2n1 [TDMQ-19, N^1-((8-amino-5,7-dichloroquinolin-2-yl)methyl)-N^3,N3-dimehypropane-1,3-diamine] | 10 orders of magnitude
